Reference: patent publication US10273503B2, “Compounds and methods for enhancing viral gene transfer to human hematopoietic cells” (UNIVERSTÉ DE MONTRÉAL, priority 2015, dated 2019)

System: human CD34+ cells
Experiment: Expansion of human CD34+ cells (EC50, CD34+CD45RA- cell count)
Assay type: cell-based
Conditions: concentration that results in a 50% increase in CD34+CD45RA- cell count compared to vehicle cultures (DMSO); for EC50: Homo sapiens, read-out: Biological data (EC50)*

Row | SMILES | EC50 [nM] | Biological data (EC50)*
1 | COC(=O)c1ccc2c(c1)[nH]c1ncnc(NCCCN3CCCCC3)c12 [Cmpd 2] | 250 to 500 | –
2 | COC(=O)c1ccc2c(c1)[nH]c1ncnc(NCCCN3CCCC3)c12 [Cmpd 9] | 100 to 250 | –
3 | COC(=O)c1ccc2c(c1)[nH]c1ncnc(NCCN(C)C)c12 [Cmpd 11] | 100 to 250 | –
4 | COC(=O)c1ccc2c(c1)[nH]c1ncnc(NCCCN(C)C)c12 [Cmpd 12] | 500 to 1000 | –
5 | COC(=O)c1ccc2c(c1)[nH]c1ncnc(NCCCN3CCCCC3C)c12 (stereo not drawn) [Cmpd 14] | 100 to 250 | –
6 | COC(=O)c1ccc2c(c1)[nH]c1ncnc(NCCCN)c12 [Cmpd 15] | 250 to 500 | –
7 | COC(=O)c1ccc2c(c1)[nH]c1ncnc(NCC(O)CN3CCCCC3)c12 (stereo not drawn) [Cmpd 16] | 250 to 500 | –
8 | COC(=O)c1ccc2c(c1)[nH]c1ncnc(NCCCN3CCOCC3)c12 [Cmpd 19] | > 1000 | –
9 | COC(=O)c1ccc2c(c1)[nH]c1nc(Cc3cccnc3)nc(NCCCN3CCCCC3)c12 [Cmpd 22] | < 100 | –
10 | COC(=O)c1ccc2c(c1)[nH]c1nc(Cc3cnccn3)nc(NCCCN3CCCCC3)c12 [Cmpd 24] | 500 to 1000 | –
11 | COC(=O)c1ccc2c(c1)[nH]c1nc(Cc3ccsc3)nc(NCCCN3CCCCC3)c12 [Cmpd 25] | < 100 | –
12 | COC(=O)c1ccc2c(c1)[nH]c1nc(Cc3cc(Br)cc(I)c3)nc(NCCCN3CCCCC3)c12 [Cmpd 26] | < 100 | –
13 | COC(=O)c1ccc2c(c1)[nH]c1nc(C(O)c3ccccc3)nc(NCCCN3CCCCC3)c12 (stereo not drawn) [Cmpd 29] | – | F (F = compound showed >1.3 fold expansion)
14 | COC(=O)c1ccc2c(c1)[nH]c1nc(C(=O)c3ccccc3)nc(NCCCN3CCCCC3)c12 [Cmpd 30] | – | F (F = compound showed >1.3 fold expansion)
15 | COC(=O)c1ccc2c(c1)[nH]c1nc(C(C)c3ccccc3)nc(NCCCN3CCCCC3)c12 (stereo not drawn) [Cmpd 31] | < 100 | –
16 | CCOC(=O)c1ccc2c(c1)[nH]c1nc(Cc3ccccc3)nc(NCCCN3CCCCC3)c12 [Cmpd 33] | – | F (F = compound showed >1.3 fold expansion)
17 | COC(=O)c1ccc2c(c1)[nH]c1nc(Cc3ccccc3)nc(NCCCN3CCCCC3)c12 [Cmpd 34] | < 100 | –
18 | COC(=O)c1ccc2c(c1)[nH]c1nc(Cc3ccccc3C)nc(NCCCN3CCCCC3)c12 [Cmpd 36] | < 100 | –

Continued, in another order:

Row | EC50 [nM] | SMILES | Biological data (EC50)*
19 | 250 to 500 | COC(=O)c1ccc2c(c1)[nH]c1ncnc(NCCCCN(C)C)c12 [Cmpd 10] | –
20 | 250 to 500 | COC(=O)c1ccc2c(c1)[nH]c1ncnc(NCCN3CCCCC3)c12 [Cmpd 13] | –
21 | 500 to 1000 | COC(=O)c1ccc2c(c1)[nH]c1ncnc(NC3CCNCC3)c12 [Cmpd 17] | –
22 | 250 to 500 | COC(=O)c1ccc2c(c1)[nH]c1ncnc(NCCC3CCNCC3)c12 [Cmpd 18] | –
23 | 100 to 250 | COC(=O)c1ccc2c(c1)[nH]c1ncnc(N3CCC(N4CCCCC4)CC3)c12 [Cmpd 20] | –
24 | 100 to 250 | Cn1nnc(-c2ccc3c(c2)[nH]c2ncnc(NCCCN4CCCCC4)c23)n1 [Cmpd 21] | –
25 | 250 to 500 | COC(=O)c1ccc2c(c1)[nH]c1nc(Cc3ccncc3)nc(NCCCN3CCCCC3)c12 [Cmpd 23] | –
26 | 100 to 250 | COC(=O)c1ccc2c(c1)[nH]c1nc(Cc3ccc4ccccc4c3)nc(NCCCN3CCCCC3)c12 [Cmpd 27] | –
27 | < 100 | COC(=O)c1ccc2c(c1)[nH]c1nc(C(OC)c3ccccc3)nc(NCCCN3CCCCC3)c12 (stereo not drawn) [Cmpd 28] | –
28 | < 100 | COC(=O)c1ccc2c(c1)[nH]c1nc(Cc3cccc(C4(C(F)(F)F)N=N4)c3)nc(NCCCN3CCCCC3)c12 [Cmpd 32] | –
29 | < 100 | COC(=O)c1ccc2c(c1)[nH]c1nc(Cc3cccc(Br)c3)nc(NCCCN3CCCCC3)c12 [Cmpd 35] | –
30 | < 100 | COC(=O)c1ccc2c(c1)[nH]c1nc(Cc3ccc(C)cc3)nc(NCCCN3CCCCC3)c12 [Cmpd 37] | –
31 | < 100 | COC(=O)c1ccc2c(c1)[nH]c1nc(Cc3cccc(OC)c3)nc(NCCCN3CCCCC3)c12 [Cmpd 38] | –
32 | < 100 | COC(=O)c1ccc2c(c1)[nH]c1nc(Cc3cccc(C(=O)C(F)(F)F)c3)nc(NCCCN3CCCCC3)c12 [Cmpd 39] | –
33 | < 100 | Cn1nnc(-c2ccc3c(c2)[nH]c2nc(Cc4ccccc4)nc(NCCCN4CCCCC4)c23)n1 [Cmpd 41] | –
